Consider 17 compounds from PubChem BioAssay AID192 (DTP/NCI, 2004).

Values joined by “and” are separate entries in the source; they are usually repeats but may differ in a detail not shown here. Equal values may be shown once. Inconclusive results and toxic doses are left out.

This test relates to BDF1 mice, B16 melanoma ip, median survival T/C. As to the kind of experiment: NCI In Vivo Anticancer Drug Screen. Data for tumor model B16 Melanoma (intraperitoneal) in B6D2F1 (BDF1) mice. The settings on record: endpoint: median survival time, higher = longer survival. A digest of the protocol:
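Mice with transplantable tumors; drug vs vehicle groups; endpoint survival or tumor size; value = T/C.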

[1] abbreviates: dose: 6.25 mg/kg/injection, schedule: Q01DX009 (ip), vehicle: saline.
The mark [2] stands for this setting: dose: 25.0 mg/kg/injection, schedule: Q01DX009 (ip), vehicle: saline.
[3] abbreviates: dose: 100.0 mg/kg/injection, schedule: Q01DX009 (ip), vehicle: Klucel (hydroxypropylcellulose) (HPC).
Setting [4] is: dose: 200.0 mg/kg/injection, schedule: Q01DX009 (ip), vehicle: Klucel (hydroxypropylcellulose) (HPC).
Setting [5] is: dose: 400.0 mg/kg/injection, schedule: Q01DX009 (ip), vehicle: Klucel (hydroxypropylcellulose) (HPC).
Where [6] appears, read: dose: 6.25 mg/kg/injection, schedule: Q01DX009 (ip), vehicle: saline with Tween-80.
Where [7] appears, read: dose: 12.5 mg/kg/injection, schedule: Q01DX009 (ip), vehicle: saline with Tween-80.
The mark [8] stands for this setting: dose: 25.0 mg/kg/injection, schedule: Q01DX009 (ip), vehicle: saline with Tween-80.
Where [9] appears, read: dose: 50.0 mg/kg/injection, schedule: Q01DX009 (ip), vehicle: saline with Tween-80.
Setting [10] is: dose: 25.0 mg/kg/injection, schedule: Q01DX009 (ip), vehicle: Klucel (hydroxypropylcellulose) (HPC).
Where [11] appears, read: dose: 100.0 mg/kg/injection, schedule: Q01DX009 (ip), vehicle: saline with Tween-80.

`OC(CC(O)(C(F)(F)F)C(F)(F)F)c1cccc(Cl)c1` (stereo unspecified): the T/C was 105 % of control (dose: 50.0 mg/kg/injection, schedule: Q04DX003 (ip), vehicle: gum acacia); 90 % of control (dose: 100.0 mg/kg/injection, schedule: Q04DX003 (ip), vehicle: gum acacia); 90 % of control (dose: 200.0 mg/kg/injection, schedule: Q04DX003 (ip), vehicle: gum acacia).

Consider `CC(=O)OC1C2CCC3C(C)(O)C4CC(O)C(C)(C)C4(O)C(O)CC13CC2(C)O` (stereo unspecified), for which the T/C runs as follows: (dose: 2.0 micrograms/kg/injection, schedule: Q01DX009 (ip), vehicle: Klucel (hydroxypropylcellulose) (HPC)) 101 % of control; (dose: 4.0 micrograms/kg/injection, schedule: Q01DX009 (ip), vehicle: Klucel (hydroxypropylcellulose) (HPC)) 92 % of control; (dose: 8.0 micrograms/kg/injection, schedule: Q01DX009 (ip), vehicle: Klucel (hydroxypropylcellulose) (HPC)) 99 % of control; (dose: 16.0 micrograms/kg/injection, schedule: Q01DX009 (ip), vehicle: Klucel (hydroxypropylcellulose) (HPC)) 98 % of control.

On to `[N-]=[N+]=CC(=O)CCC(N)C(=O)O` (stereo unspecified), for which the T/C (dose: 0.03 mg/kg/injection, schedule: Q01DX009 (ip), vehicle: saline with Tween-80) was 95 % of control; the T/C (dose: 0.05 mg/kg/injection, schedule: Q01DX009 (ip), vehicle: saline) is 115 % of control; the T/C (dose: 0.06 mg/kg/injection, schedule: Q01DX009 (ip), vehicle: saline with Tween-80) was 91 % of control; the T/C (dose: 0.1 mg/kg/injection, schedule: Q01DX009 (ip), vehicle: saline) was 104 % of control; the T/C (dose: 0.12 mg/kg/injection, schedule: Q01DX009 (ip), vehicle: saline with Tween-80) was 95 % of control; the T/C (dose: 0.13 mg/kg/injection, schedule: Q01DX009 (ip), vehicle: saline) was 102 % of control. Moreover, the T/C is, setting by setting: (dose: 6.2 micrograms/kg/injection, schedule: Q01DX009 (ip), vehicle: saline) 91 % of control; (dose: 12.5 micrograms/kg/injection, schedule: Q01DX009 (ip), vehicle: saline) 92 % of control; (dose: 25.0 micrograms/kg/injection, schedule: Q01DX009 (ip), vehicle: saline) 109 % of control.

`[Cl][Pt+2][Cl].[NH-]c1ccc(Cl)cc1[NH-]`: the T/C (dose: 2.5 mg/kg/injection, schedule: Q01DX009 (ip), vehicle: saline with Tween-80) is 108 % of control; the T/C (dose: 20.0 mg/kg/injection, schedule: Q01DX009 (ip), vehicle: saline with Tween-80) is 153 % of control; the T/C (dose: 40.0 mg/kg/injection, schedule: Q01DX009 (ip), vehicle: saline with Tween-80) is 123 % of control.

With `NC(=S)N/N=C/c1nccc2ccccc12`, the T/C runs as follows: under setting [1], 153 % of control; (dose: 9.4 mg/kg/injection, schedule: Q01DX009 (ip), vehicle: saline with Tween-80) 105 % of control and 122 % of control; (dose: 9.4 mg/kg/injection, schedule: Q04DX003 (ip), vehicle: saline) 122 % of control; (dose: 18.8 mg/kg/injection, schedule: Q01DX009 (ip), vehicle: saline with Tween-80) 118 % of control and 122 % of control and 124 % of control; under setting [2], 172 % of control; (dose: 50.0 mg/kg/injection, schedule: Q01DX009 (ip), vehicle: saline) 196 % of control. Also, the T/C was 155 % of control (dose: 100.0 mg/kg/injection, schedule: Q01DX009 (ip), vehicle: saline) and 152 % of control (dose: 150.0 mg/kg/injection, schedule: Q04DX003 (ip), vehicle: saline).

Turning to `C[n+]1ccc2cc(N)c3c4ccccc4sc3c2c1`, the T/C is 103 % of control (dose: 3.12 mg/kg/injection, schedule: Q01DX009 (ip), vehicle: Klucel (hydroxypropylcellulose) (HPC)); 101 % of control (dose: 6.25 mg/kg/injection, schedule: Q01DX009 (ip), vehicle: Klucel (hydroxypropylcellulose) (HPC)); 113 % of control under setting [1]; 95 % of control (dose: 12.5 mg/kg/injection, schedule: Q01DX009 (ip), vehicle: Klucel (hydroxypropylcellulose) (HPC)); 119 % of control (dose: 12.5 mg/kg/injection, schedule: Q01DX009 (ip), vehicle: saline); 91 % of control under setting [2].

On to `Cc1ccc(C2NC(=O)c3ccccc3N2)c(C)c1` (stereo unspecified), for which the T/C is 109 % of control under setting [3], 109 % of control under setting [4] and 109 % of control under setting [5].

For `OC1(C#CC2(O)c3ccccc3-c3ccccc32)c2ccccc2-c2ccccc21`, the T/C under setting [3] is 122 % of control, the T/C under setting [4] was 97 % of control and the T/C under setting [5] was 94 % of control.

Turning to `O=C(O[Si](Cc1ccccc1)(Cc1ccccc1)Cc1ccccc1)N(CCCl)CCCl`, the T/C was 100 % of control under setting [6], 112 % of control under setting [7], 104 % of control under setting [8] and 108 % of control under setting [9].

As for `O=c1oc(-c2ccccc2Cl)nc2cc(Cl)ccc12`, the T/C under setting [10] is 113 % of control and the T/C (dose: 50.0 mg/kg/injection, schedule: Q01DX009 (ip), vehicle: Klucel (hydroxypropylcellulose) (HPC)) was 90 % of control.

On to `c1cc2cc3c(cc2cc1CC1=NCCc2cc4c(cc21)OCO4)OCO3`, for which, under “dose: 150.0 mg/kg/injection, schedule: Q01DX009 (ip), vehicle: other”, the T/C is 102 % of control.

`N=C(N)NC(=N)Nc1ccc(NC(=O)Nc2ccc(Nc3c4ccccc4nc4cc([N+](=O)[O-])ccc34)cc2)cc1`: the T/C runs as follows: (dose: 0.8 mg/kg/injection, schedule: Q01DX009 (ip), vehicle: water) 98 % of control; (dose: 1.6 mg/kg/injection, schedule: Q01DX009 (ip), vehicle: water) 100 % of control; (dose: 3.13 mg/kg/injection, schedule: Q01DX009 (ip), vehicle: water) 102 % of control; (dose: 6.25 mg/kg/injection, schedule: Q01DX009 (ip), vehicle: water) 104 % of control; (dose: 12.5 mg/kg/injection, schedule: Q01DX009 (ip), vehicle: water) 94 % of control.

Regarding `S=C=NCCc1ccccc1`, the T/C was 111 % of control under setting [7], 114 % of control under setting [8] and 96 % of control under setting [9].

On to `Cc1ccc(Cl)cc1NC(=O)c1ccccc1`, for which the T/C reads like this: (dose: 75.0 mg/kg/injection, schedule: Q01DX009 (ip), vehicle: Klucel (hydroxypropylcellulose) (HPC)) 93 % of control; (dose: 150.0 mg/kg/injection, schedule: Q01DX009 (ip), vehicle: Klucel (hydroxypropylcellulose) (HPC)) 104 % of control; (dose: 300.0 mg/kg/injection, schedule: Q01DX009 (ip), vehicle: Klucel (hydroxypropylcellulose) (HPC)) 105 % of control.

For `CC(=O)NC(CO)C(=O)c1ccc(S(=O)(=O)c2ccccc2)cc1` (stereo unspecified), the T/C is, setting by setting: under setting [11], 102 % of control; (dose: 200.0 mg/kg/injection, schedule: Q01DX009 (ip), vehicle: saline with Tween-80) 93 % of control.

`CC(=O)CC(=O)Nc1cccc([N+](=O)[O-])c1`: the T/C is, setting by setting: under setting [10], 100 % of control; under setting [3], 94 % of control.

Turning to `BrCC[Se]c1ccccc1`, the T/C was 103 % of control under setting [6]; 95 % of control under setting [7]; 96 % of control under setting [8]; 104 % of control under setting [9]; 89 % of control under setting [11].
